Patent US7820624B2, “Peptide ligands” (ICH Productions Limited, priority 2003, dated 2010)

Test system: human monocyte-derived primary macrophages
Assay: Adenoviral transduction of primary macrophages
Format: cell-based
Conditions: 10,000 viral particles/cell in 2.5% serum
Experimental: Day 6 dendritic cells (see Example 1(v) above), or mouse bone marrow derived dendritic cells or mouse Sca1+ve stem cells, see (i) and (ii) above, were plated at 5×10^4 cells per well in a 48 well plate in 500 μl complete medium and allowed to settle for 3 hours at 37° C. Transductions were carried out in complete media, with virus being added at 100,000 viral particles/cell for 24 hours. Cells were harvested by scraping, spun down at 650 g (2000 rpm) for 5 min, resuspended in 300 μl PBS, and kept on ice before analysis. Viral transduction as determined by percentage of GFP positive cells was measured by FACS analysis. To measure percentage viability, 10 μl of 7-amino-actinomycin D (7AAD; Sigma, Poole, Dorset) was added immediately prior to analysis. Viral transduction of macrophages was carried out at 10,000 particles/cell in medium containing 2.5% FCS. For other cell types, cells were seeded overnight at 5×10^4 cells per well in 24-well plates in the appropriate media. Adenovirus was added in OptiMEM at 10,000 viral particles/cell, 1 ml per well in triplicate and incubated for 24 h at 37° C. Cells were then washed twice in PBS, trypsinised, triplicate wells pooled, spun down at 350×g for 5 min and resuspended in 300 μl PBS before analysis by flow cytometry where cell viability was to be measured, 10 μl 7AAD was added just prior to analysis.
10 mls of peripheral blood were diluted 1:1 with HBSS then layered on Lymphoprep (Nycomed), spun at 750 g for 30 min and purified […] were isolated from the interface. Excess Lymphoprep was removed by spinning cells down at 250 g for 10 min and any platelets present were removed by washing in HBSS twice, spinning the cells at 1200 rpm for 10 min each time. Monocytes were then isolated using MACs CD14 microbeads as described in the manufacturer's protocol. The mononuclear cells were plated into a […] flask in 10% FCS, RPMI for 1-2 hours (1 flask per 10 ml blood) before removing the supernatant and adding fresh 10% FCS, RPMI+10 ng/ml MCSF (macrophage colony stimulating factor). Half the medium was replaced with fresh 10% FCS, RPMI+MCSF (10 ng/ml) after 48 hours and the cells were used at day 6, harvesting by scraping the cells from the well.
Viral transduction was carried out at 10,000 particles/cell in medium containing 2.5% FCS. Viral transduction as determined by percentage of GFP positive cells was measured by FACS analysis. Cells were pooled from three separate transduction experiments for the calculation of results.

Substance: SHVKLNS (Synthetic peptide binding to dendritic cells)
- Transduction, % cells transduced (listed as A): 67.6%
- Transduction, % cells transduced (listed as peptide A): 67.6%
